# Experimental data from patent US20100197628A1, “METHODS OF TREATING PSYCHIATRIC, SUBSTANCE ABUSE, AND OTHER DISORDERS USING COMBINATIONS CONTAINING OMEGA-3 FATTY ACIDS” (priority 2003, published 2010).
# “Also recorded” adds a separate entry of the source. Counter-ions that a name gives are not always drawn.
# Tests used:
# male Sprague-Dawley rats = test: Forced swim test (FST): latency to become immobile and behavioral sampling; assay type: in vivo, rat; settings: re-test (day 2), DMI 10 mg/kg, FLX 20 mg/kg; for latency to become immobile: 3 IP injections, CIT 5.0 mg/kg; for occurrences of climbing (behavioral sampling) / occurrences of swimming (behavioral sampling) / occurrences of immobility (behavioral sampling): CIT 5.0 mg/kg IP
# Procedure: The behavioral effects of the combination of uridine and omega-3 fatty acids were also evaluated in rats using the forced swim test (FST). This assay identifies in rodents treatments that have antidepressant effects in humans (Porsolt et al. Nature 266:730-732 1977; Carlezon et al. Biol. Psychiatry 51:882-889, 2002). Uridine was administered using systemic injection while omega-3 fatty acids were administered by supplementation within the diet for various periods of time (3, 10, or 30 days). The effects of uridine in rats maintained on the omega-3 fatty acid-enriched diet were also evaluated to determine if these effects were additive. […] The efficacy of each treatment in the FST was evaluated using two separate scoring methods: latency to become immobile, a simple and rapid method that identifies agents with antidepressant effects ([…] et al. J Neurosci 21:7397-7403 2001), and behavioral sampling, a more complex method that differentiates antidepressant drugs according to their pharmacological mechanisms (Detke et al. Psychopharmacology 121:66-72 1995). Finally, treatments with antidepressant-like effects in the FST were evaluated for non-specific effects on activity in an open field, which might complicate interpretation of the data from the swimming studies. Rats: A total of 197 male Sprague-Dawley rats (Charles River Laboratories, Boston Mass.) were used in these studies. The rats were housed in groups of four and weighed 325-375 gm at the time of behavioral testing. Rats were maintained on a 12 h light (0700-1900 h)-12 h dark cycle with free access to food and water except during testing. Experiments were conducted in accordance with the 1996 Guide for the Care and Use of Laboratory Animals (NIH) and McLean Hospital policies. Drugs: Dosages of desipramine HCl (DMI), fluoxetine HCl (FLX), citalopram HBr (CIT), and uridine (URI) were administered in a distilled water vehicle (VEH) at a volume of 1 cc/kg. All drugs were purchased from RBI-Sigma (St. Louis, Mo.) except CIT, which was a gift of Forest Laboratories (New York, N.Y.). […] The diets were equivalent in overall fat, protein, carbohydrate, and caloric content. Forced Swim Test (FST): One hundred-sixty seven rats were used in the FST studies, which were conducted as described previously (Carlezon et al. Biol. Psychiatry 51:882-889, 2002) with minor modifications. The FST is a two-day procedure in which rats swim under conditions in which escape is not possible. On the first day, rats are placed in clear, 65 cm tall-25 cm diameter cylinders filled to 48 cm with 25° C. water. The rats initially struggle to escape from the water, but eventually they adopt a posture of immobility in which they make only the movements necessary to keep their heads above water. After 15 min of forced swimming, the rats are removed from the water, dried with towels, and placed in a warmed enclosure for 30 min. The cylinders are emptied and cleaned between rats. When the rats are re-tested 24 hours later under identical conditions in 5 min sessions, immobility is increased. Treatment with standard antidepressant drugs within the 24 hr period between the first exposure to forced swimming and re-testing can attenuate facilitated immobility, an effect correlated with antidepressant efficacy in humans (Porsolt et al. Nature 266:730-732 1977; Detke et al. Psychopharmacology 121:66-72 1995, Carlezon et al. Biol. Psychiatry 51:882-889, 2002). Rats tested with DMI, FLX, CIT, or URI received 3 separate intraperitoneal (IP) injections of drug (or VEH), at 1 hr, 19 hr, and 23 hr after the first exposure to forced swimming. This commonly used regimen is sensitive to the antidepressant-like effects of many standard agents (Porsolt et al. Nature 266:730-732 1977; Detke et al. Psychopharmacology 121:66-72 1995; Carlezon et al. Biol. Psychiatry 51:882-889, 2002). […] There were 7-12 rats per treatment condition, and separate rats were used for each treatment regimen. […]
# depressed subjects = test: 17-item Hamilton Depression Rating Scale (HDRS), eight weeks of treatment; assay type: in vivo, human
# Procedure: In a second study, twelve depressed subjects (mean age 40) received 500 mg of an oral formulation of CDP-choline twice daily for eight weeks.
# children with ADHD [1] = test: Infrared motion analysis of activity during the attention test; assay type: in vivo, human
# Excerpt: A new fMRI procedure (T2 relaxometry or “T2-RT”) was developed to indirectly assess blood volume in the striatum (caudate and putamen) of boys 6-12 years of age under steady-state conditions. Six healthy control boys (10.2±1.5 yr) and eleven boys diagnosed with ADHD (9.3±1.6 yr) served as subjects in the study to examine fMRI differences between unmedicated healthy controls and ADHD children on either placebo or the highest dose of methylphenidate. The healthy controls were screened using structured diagnostic interview (K-SADS-E; Orvaschel, H. & Puig-Antich, J., The schedule for affective disorders and schizophrenia for school-age children-epidemiologic version (Kiddie-SADS-E), University of Pittsburgh, Pittsburgh, Pa., 1987), were free of any major psychiatric disorder, and had no more than 3 out of 9 possible symptoms of inattention or hyperactivity-impulsivity by DSM-IV criteria. Children with ADHD were included if they met criteria for ADHD on structured diagnostic interview, and had at least 6 of 9 symptoms of inattention or hyperactivity-impulsivity. Children with ADHD took part in a triple blind (parent, child, rater), randomized, placebo-controlled study of effects of methylphenidate (0, 0.5, 0.8, 1.5 mg/kg in divided dose) on activity, attention, and fMRI. […] Activity and attention were evaluated in unmedicated healthy controls using the same procedure as children with ADHD, and fMRI followed within the same time frame.
# (§1) Highly accurate laboratory-based measures of activity and attention were obtained by having the children perform a computerized vigilance test while an infrared motion analysis system captured and recorded movements (see Methods). […]
# Assessment of Activity and Attention. […] In brief, children sat in front of a computer and were evaluated using a simple GO/NO−GO CPT in which the subject responds to visual presentation of a target and withholds response to a non-target stimuli that appear in the center of the screen at a fixed 2 second […] interval (Greenberg et al., Psychopharmacol. Bull. 23: 279-282, 1987). […] Three 5-minute test sessions were recorded during a 30-minute test period while an infrared motion analysis system (Qualisys, Glastonbury, Conn.) recorded the movement of small reflective markers attached to the head, shoulder, elbow, and back of the child. […] Results were analyzed using the concept of “micro-events.” A new micro-event begins when the marker moves 1.0 millimeters or more from its most recent resting location, and is defined by its position and duration. The spatial scaling exponent is a measure of the spatial complexity of the movement path, and is calculated from the logarithmic rate of information decay at progressively lower levels of resolution. […]
# [2] = test system: putamen, caudate and thalamus of children with ADHD; test: T2 relaxometry fMRI (T2-RT), indirect measure of regional blood volume; assay type: in vivo, human; settings: ongoing treatment
# Excerpt: A new fMRI procedure (T2 relaxometry or “T2-RT”) was developed to indirectly assess blood volume in the striatum (caudate and putamen) of boys 6-12 years of age under steady-state conditions. Six healthy control boys (10.2±1.5 yr) and eleven boys diagnosed with ADHD (9.3±1.6 yr) served as subjects in the study to examine fMRI differences between unmedicated healthy controls and ADHD children on either placebo or the highest dose of methylphenidate. The healthy controls were screened using structured diagnostic interview (K-SADS-E; Orvaschel, H. & Puig-Antich, J., The schedule for affective disorders and schizophrenia for school-age children-epidemiologic version (Kiddie-SADS-E), University of Pittsburgh, Pittsburgh, Pa., 1987), were free of any major psychiatric disorder, and had no more than 3 out of 9 possible symptoms of inattention or hyperactivity-impulsivity by DSM-IV criteria. Children with ADHD were included if they met criteria for ADHD on structured diagnostic interview, and had at least 6 of 9 symptoms of inattention or hyperactivity-impulsivity. Children with ADHD took part in a triple blind (parent, child, rater), randomized, placebo-controlled study of effects of methylphenidate (0, 0.5, 0.8, 1.5 mg/kg in divided dose) on activity, attention, and fMRI. Children with ADHD were treated continuously for one week with placebo or a specific dose of methylphenidate and at the end of the week were tested for drug efficacy using objective measures of attention and activity and fMRI (See Methods) within 1-3 hours of their afternoon dose. The time between dose and testing was held constant for each subject throughout the four treatment conditions. Activity and attention were evaluated in unmedicated healthy controls using the same procedure as children with ADHD, and fMRI followed within the same time frame.
# T2 relaxometry, a novel fMRI procedure, was used to derive steady state blood flow measures and to test for enduring medication effects. […] T2 relaxometry, like BOLD, hinges on the paramagnetic properties of deoxyhemoglobin. […]
# children with ADHD [3] = test: Computerized continuous performance task (CPT), measure of attention; assay type: in vivo, human
# Procedure: A new fMRI procedure (T2 relaxometry or “T2-RT”) was developed to indirectly assess blood volume in the striatum (caudate and putamen) of boys 6-12 years of age under steady-state conditions. Six healthy control boys (10.2±1.5 yr) and eleven boys diagnosed with ADHD (9.3±1.6 yr) served as subjects in the study to examine fMRI differences between unmedicated healthy controls and ADHD children on either placebo or the highest dose of methylphenidate. […] Activity and attention were evaluated in unmedicated healthy controls using the same procedure as children with ADHD, and fMRI followed within the same time frame.
# as §1
# Assessment of Activity and Attention. […] In brief, children sat in front of a computer and were evaluated using a simple GO/NO−GO CPT in which the subject responds to visual presentation of a target and withholds response to a non-target stimuli that appear in the center of the screen at a fixed 2 second […] interval (Greenberg et al., Psychopharmacol. Bull. 23: 279-282, 1987). […]
# Statistical Analyses. Differences between groups was assessed using ANCOVA with age as a covariate. […]
# [4] = eight weeks, CDP-choline 500 mg twice daily, fluoxetine 20 mg/day
# [5] = children with ADHD, methylphenidate vs placebo, P<0.05
structure (smiles),measurement,setting,value
"CNCCC(Oc1ccc(C(F)(F)F)cc1)c1ccccc1 (stereo not shown) [fluoxetine, fluoxetine HCl]",latency to become immobile,"male Sprague-Dawley rats; listed as FLX, HCl",increased latencies to become immobile
same,occurrences of climbing (behavioral sampling),male Sprague-Dawley rats,without affecting climbing
same,occurrences of swimming (behavioral sampling),male Sprague-Dawley rats,increased swimming
same,occurrences of immobility (behavioral sampling),"male Sprague-Dawley rats; listed as FLX, HCl",reduced immobility; also recorded: decreased immobility
same,mean 17-item HDRS score with eight weeks of treatment,"depressed subjects; CDP-choline 500 mg oral twice daily, fluoxetine open label 20 mg/day, p<0.0001",11±6
same,mean 17-item HDRS score before treatment,"depressed subjects; baseline, CDP-choline 12 subjects, fluoxetine 41 subjects",21±4
same,complete responses (subjects/total),depressed subjects; [4],17/41
same,"complete responses, share of subjects",depressed subjects; [4],41%
"CN(C)CCCC1(c2ccc(F)cc2)OCc2cc(C#N)ccc21 (stereo not shown) [CIT, citalopram HBr]",latency to become immobile,male Sprague-Dawley rats; HBr,increased latencies to become immobile
same,occurrences of climbing (behavioral sampling),male Sprague-Dawley rats,without affecting climbing
same,occurrences of swimming (behavioral sampling),male Sprague-Dawley rats,increased swimming
same,occurrences of immobility (behavioral sampling),male Sprague-Dawley rats; HBr,reduced immobility; also recorded: decreased immobility
COC(=O)C(c1ccccc1)C1CCCCN1 (stereo not shown) [methylphenidate],increase in spatial complexity,"children with ADHD [1]; 5 ADHD children not objectively hyperactive on placebo, p>0.6",< 8%
same,increase in spatial complexity,"children with ADHD [1]; 6 subjects objectively hyperactive on placebo, P<0.02",52.6%
same,complexity of the movement pattern,children with ADHD [1]; [5],increasing
same,increase in time spent immobile,children with ADHD [1]; [5],126%
same,T2-RT in right caudate,[2]; P=0.08,trend-level difference
same,T2-RT in thalamus,[2]; P>0.7,failed to exert significant effects
same,T2-RT in right and left putamen,"[2]; response tied to unmedicated activity state, P=0.006",significantly altered
same,response variability (S.D.) of response latency,"children with ADHD [3]; children with ADHD on methylphenidate (placebo 242 msec), P<0.005",149 ms
same,performance accuracy on the CPT,"children with ADHD [3]; children with ADHD, methylphenidate vs placebo, one week of treatment, P<0.05",enhancing
"CNCCCN1c2ccccc2CCc2ccccc21 [DMI, desipramine HCl]",latency to become immobile,male Sprague-Dawley rats; HCl,increased latencies to become immobile
same,occurrences of climbing (behavioral sampling),male Sprague-Dawley rats; HCl,increased climbing; also recorded: increases in occurrences of climbing
same,occurrences of immobility (behavioral sampling),male Sprague-Dawley rats; HCl,reduced immobility; also recorded: decreases in occurrences of immobility
same,occurrences of swimming (behavioral sampling),male Sprague-Dawley rats; HCl,without affecting occurrences of swimming
